Results as given in patent US20180333491A1 (Sinotau Pharmaceuticals Group, priority 2015, published 2018).
Marks after values point to notes of the source that are not given here. Values belong to the compound of their own block, whether it stands above or below them.

Assays:
[1] = system: human pancreatic cancer tumor cells MIA-PaCa-2; assay: MIA-PaCa-2 subcutaneous model; conditions: for Tumor Volume (cm^3) Mean ± SEM: 34 days of treatment; for bodyweights: MIA-PaCa-2 model, over the treatment time; for Time of tumor volume changed significantly: days after first treatment; for Tumor weight (g) Mean ± SEM: end of experiment
Method: (§7) The bodyweight and major/minor axis of the mice were measured twice a week, and the tumor volumes were calculated using the formula: Tumor volume=1/2×major axis×minor axis. […] “T” represents average tumor volume of the experimental group (cm^3), and “C” represents average tumor volume of the control group (cm^3). The animals were monitored at all times. The bodyweight and major/minor axis or mice were measured twice a week. When the experiments were concluded, mice were sacrificed and tumors were extracted and weighted.
(§8) Tumor volumes were represented with average ±standard error. Data analysis was done using Spss16.0, One-Way ANOVA, LSD (homogeneity of variance) or Dunnett T3 (non-homogeneity of variance). […] P<0.05 represents significant difference.

DR4 = target: T1, DR4 (Homo sapiens, UniProt O00220); assay: CLEIA binding specificity; conditions: DR4-His-EC coated; antibody 200, 40 and 8 ng/mL
T1 construct: His; Lot: 090222-P; host or cells: E. coli
Method: (§1) The binding specificity of HuCTB006 was evaluated by chemiluminescent enzyme immunoassay (CLEIA).
(§2) HuCTB006 was diluted into 200, 40 and 8 ng/mL and then added to the wells. After 1 hour incubation in 37° C., the plate was washed. The binding of HuCTB006 with immobilized antigens was detected with HRP labeled secondary antibody and a substrate solution.

[2] = target: T2, DcR1 (recombinant human TRAIL R3/TNFRSF10C) (Homo sapiens, UniProt O14798); assay: CLEIA binding specificity; conditions: DcR1-His coated; antibody 200, 40 and 8 ng/mL
T2 construct: His; purchased Novoprotein Science Lot: 0328670
T2 sequence (O14798 26-236): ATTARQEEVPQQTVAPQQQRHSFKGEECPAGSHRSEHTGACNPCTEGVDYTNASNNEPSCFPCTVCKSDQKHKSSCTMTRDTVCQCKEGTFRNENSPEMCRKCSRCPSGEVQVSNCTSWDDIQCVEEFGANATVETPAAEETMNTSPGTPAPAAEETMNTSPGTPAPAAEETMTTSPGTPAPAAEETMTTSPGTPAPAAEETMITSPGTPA
Method: as §1, §2

[3] = target: T3, OPG (recombinant human osteroprotegerin/TNFRSF11B) (Homo sapiens, UniProt O00300); assay: CLEIA binding specificity; conditions: OPG-His coated; antibody 200, 40 and 8 ng/mL
T3 construct: His; purchased Wuxi Pharmatech Co. Ltd Lot: 20120717
T3 sequence (O00300 22-401): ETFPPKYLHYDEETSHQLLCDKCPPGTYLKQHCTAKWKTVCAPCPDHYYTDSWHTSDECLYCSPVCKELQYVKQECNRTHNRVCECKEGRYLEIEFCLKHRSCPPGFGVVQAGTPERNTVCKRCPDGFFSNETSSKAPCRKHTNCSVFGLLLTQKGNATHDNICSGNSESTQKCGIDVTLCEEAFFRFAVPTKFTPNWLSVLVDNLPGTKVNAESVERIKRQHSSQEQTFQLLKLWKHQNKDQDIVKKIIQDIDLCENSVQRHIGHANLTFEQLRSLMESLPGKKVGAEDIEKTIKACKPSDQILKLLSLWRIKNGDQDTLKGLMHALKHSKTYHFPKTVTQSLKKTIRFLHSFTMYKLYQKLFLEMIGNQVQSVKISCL
Method: as §1, §2

[4] = target: T4, DcR2 (recombinant human TRAIL R4/TNFRSF10D) (Homo sapiens, UniProt Q9UBN6); assay: CLEIA binding specificity; conditions: DcR2-His coated; antibody 200, 40 and 8 ng/mL
T4 construct: His; purchased Sino Biological Lot: LC06JU1502
T4 sequence (Q9UBN6 56-386): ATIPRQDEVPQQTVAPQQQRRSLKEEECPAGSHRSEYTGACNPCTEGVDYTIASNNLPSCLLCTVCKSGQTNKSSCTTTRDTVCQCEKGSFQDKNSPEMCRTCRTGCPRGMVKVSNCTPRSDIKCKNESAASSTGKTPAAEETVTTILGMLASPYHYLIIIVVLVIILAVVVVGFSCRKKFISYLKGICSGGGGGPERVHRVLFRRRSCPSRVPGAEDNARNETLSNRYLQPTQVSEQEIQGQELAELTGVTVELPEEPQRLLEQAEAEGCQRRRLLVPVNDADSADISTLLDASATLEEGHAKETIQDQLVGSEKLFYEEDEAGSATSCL
Method: as §1, §2

COLO205 = assay: Cytotoxicity on human tumor cell lines (ATPLite); format: cell-based
Method: (§3) Eighteen human tumor cell lines were treated with 62.5, 125, 250, 500, or 1000 ng/mL HuCTB006 or different concentrations of chemotherapy drugs, which act as positive controls. […] The culture medium for SK-Hep-1, HepG2, HCT116, SW480, WiDr (1×NEAA), MIA-PaCa-2 (2.5% Horse serum) MDA-MB-231 (1 mM NaPyr, 1×MEM-NEAA, 1×MEM VITAMIN) was DMEM. The culture medium for COLO205, BXPC3 (2 mM glutamin, 10 mM HEPES), Panc2.03 (15FBS, 1 mM NaPyr, 1×MEM-NEAA, […], 10 mM HEPES), H2122, OVCAR3 (1 mM NaPyr, 10 ug/ml human insulin, 10 mM HEPES, 2.5 g/L glucose), Molt-4 (HEPES, 2.5 g/l glocose), Jurkat (HEPES, 2.5 g/l glocose) was RPMI-1640, the culture medium for SK-MES-1 was Eagle's MEM, the culture medium for 2-LMP and DY36T2 was IMEM, and the culture medium for SUM102 (5 ug/ml insulin) was F-12K. The cell viability was determined by ATPLite Assay Kit. If the IC50 value was lower than 62.5 ng/mL, the cells were treated with higher concentration of CTB006 in the second round of experiments to determine IC50 value.

MDA-MB-231 = assay: Cytotoxicity on human tumor cell lines (ATPLite); format: cell-based
Method: as §3

Jurkat = assay: Cytotoxicity on human tumor cell lines (ATPLite); format: cell-based
Method: as §3

BXPC3 = assay: Cytotoxicity on human tumor cell lines (ATPLite); format: cell-based
Method: as §3

[5] = system: human lung cancer tumor cells H2122; assay: H2122 subcutaneous model; conditions: for Tumor Volume (cm^3) Mean ± SEM: Day 38 after treatment; for Tumor weight (g) Mean ± SEM: end of experiment
Method: as §7, §8

[6] = system: human colon cancer tumor cells Colo205; assay: Colo205 subcutaneous model; format: in vivo, nude mice; conditions: for Tumor Volume (cm^3) Mean ± SEM / TGI (Calculated using tumor volume): Day 28 after treatment; for Time of tumor volume changed significantly: days after first treatment; for Tumor weight (g) Mean ± SEM / TGI (Calculated using tumor weight): end of experiment
Method: (§4) Tumor cells (i.e., MIA-PaCa-2, WiDr, H2122, colo205) were inoculated in nude mice's flank at 5×10^6 cells per mouse. The mice were grouped when the average volume of tumors reached about 100˜200 mm^3. “QW”=weekly dose. “Q3d”=dosed every third day. “BiW”=biweekly.
(§5) The bodyweight and major/minor axis of the mice were measured twice a week, and the tumor volumes were calculated using the formula: Tumor volume=1/2×major axis[…]. […] “T” represents average tumor volume of the experimental group (cm^3), and “C” represents average tumor volume of the control group (cm^3). The animals were monitored at all times. The bodyweight and major/minor axis or mice were measured twice a week.
(§6) Tumor volumes were represented with average ±standard error. […] P<0.05 represents significant difference.

[7] = system: human colon cancer tumor cells Widr; assay: WiDr subcutaneous model; format: in vivo, nude mice; conditions: for Tumor Volume (cm^3) Mean ± SEM / TGI (Calculated using tumor volume): Day 27 after treatment; for TGI (Calculated using tumor volume): listed as HuTB006; for Tumor weight (g) Mean ± SEM: end of experiment
Method: as §4, §5, §6

[8] = HuCTB006 0.6 mg/kg i.v., 0.6 mg/kg
[9] = HuCTB006 1.8 mg/kg i.v., 1.8 mg/kg
[10] = HuCTB006 5.4 mg/kg i.v., 5.4 mg/kg

Compound: Nc1ccn([C@@H]2O[C@H](CO)[C@@H](O)C2(F)F)c(=O)n1 [Gemcitabine, reference compound]
- Tumor Volume (cm^3) Mean ± SEM ([1]; Gemcitabine 60 mg/kg i.p.): 1.60 ± 0.11 cm^3
- bodyweights [1]: decreased significantly by the third dosing
- tumor regression ([1]; first experiment): not found
- tumor regression ([1]; repeated experiment): not found

- cross-reaction with coated antigen (CLEIA) (DR4): no cross-reaction
- cross-reaction with coated antigen (CLEIA) [2]: no cross-reaction
- cross-reaction with coated antigen (CLEIA) [3]: no cross-reaction
- cross-reaction with coated antigen (CLEIA) [4]: no cross-reaction
Compound: HuCTB006: Monospecific humanized chimeric monoclonal antibody directed to TRAIL-R2 receptor; heavy chain SEQ ID NO: 16, light chain SEQ ID NO: 14
- IC50 (COLO205): ~0.01 mg/L
- IC50 (MDA-MB-231): ~0.01 mg/L
- IC50 (Jurkat): ~0.01 mg/L
- IC50 (BXPC3): ~0.01 mg/L
- Tumor Volume (cm^3) Mean ± SEM ([1]; HuCTB006 0.2 mg/kg i.v.): 1.76 ± 0.15 cm^3
- Time of tumor volume changed significantly ([1]; HuCTB006 0.2 mg/kg i.v.): 13 days
- Tumor weight (g) Mean ± SEM ([1]; HuCTB006 0.2 mg/kg i.v.): 0.79 ± 0.07 g
- Tumor Volume (cm^3) Mean ± SEM ([1]; HuCTB006 0.6 mg/kg i.v.): 1.27 ± 0.43 cm^3
- Tumor weight (g) Mean ± SEM ([1]; HuCTB006 0.6 mg/kg i.v.): 0.54 ± 0.21 g
- Tumor Volume (cm^3) Mean ± SEM ([1]; HuCTB006 1 mg/kg i.v.): 0.88 ± 0.35 cm^3
- Tumor weight (g) Mean ± SEM ([1]; HuCTB006 1 mg/kg i.v.): 0.37 ± 0.19 g
- Tumor Volume (cm^3) Mean ± SEM ([1]; HuCTB006 10 mg/kg i.v.): 0.76 ± 0.22 cm^3
- Time of tumor volume changed significantly ([1]; HuCTB006 10 mg/kg i.v.): 7^2 days
- Tumor weight (g) Mean ± SEM ([1]; HuCTB006 10 mg/kg i.v.): 0.19 ± 0.08 g
- bodyweights [1]: slow increase
- Tumor Volume (cm^3) Mean ± SEM ([5]; HuCTB006 0.2 mg/kg i.v.): 1.85 ± 0.15 cm^3
- Tumor weight (g) Mean ± SEM ([5]; HuCTB006 0.2 mg/kg i.v.): 1.54 ± 0.09 g
- Tumor Volume (cm^3) Mean ± SEM ([5]; HuCTB006 0.6 mg/kg i.v.): 1.02 ± 0.31 cm^3
- Tumor weight (g) Mean ± SEM ([5]; HuCTB006 0.6 mg/kg i.v.): 0.89 ± 0.29 g
- Tumor Volume (cm^3) Mean ± SEM ([5]; HuCTB006 1.8 mg/kg i.v.): 0.16 ± 0.16 cm^3
- Tumor weight (g) Mean ± SEM ([5]; HuCTB006 1.8 mg/kg i.v.): 0.12 ± 0.12 g
- Tumor Volume (cm^3) Mean ± SEM ([5]; HuCTB006 5.4 mg/kg i.v.): 0.18 ± 0.18 cm^3
- Tumor weight (g) Mean ± SEM ([5]; HuCTB006 5.4 mg/kg i.v.): 0.19 ± 0.18 g
- Tumor Volume (cm^3) Mean ± SEM ([6]; HuCTB006 0.2 mg/kg i.v.): 1.24 ± 0.20 cm^3
- Time of tumor volume changed significantly ([6]; HuCTB006 0.2 mg/kg i.v.): 10 days
- Tumor weight (g) Mean ± SEM ([6]; HuCTB006 0.2 mg/kg i.v.): 0.84 ± 0.14 g
- TGI (Calculated using tumor volume) ([6]; HuCTB006 0.6 mg/kg i.v.): 84.78%
- Tumor Volume (cm^3) Mean ± SEM ([6]; HuCTB006 0.6 mg/kg i.v.): 0.29 ± 0.13 cm^3
- TGI (Calculated using tumor volume) [6, 8]: 84.78%*
- TGI (Calculated using tumor weight) ([6]; HuCTB006 0.6 mg/kg i.v.): 84.07%
- Tumor weight (g) Mean ± SEM ([6]; HuCTB006 0.6 mg/kg i.v.): 0.20 ± 0.10 g
- TGI (Calculated using tumor weight) [6, 8]: 84.07%*
- TGI (Calculated using tumor volume) ([6]; HuCTB006 1.8 mg/kg i.v.): 80.07%
- Tumor Volume (cm^3) Mean ± SEM ([6]; HuCTB006 1.8 mg/kg i.v.): 0.38 ± 0.16 cm^3
- TGI (Calculated using tumor volume) [6, 9]: 80.07%*
- TGI (Calculated using tumor weight) ([6]; HuCTB006 1.8 mg/kg i.v.): 81.78%
- Tumor weight (g) Mean ± SEM ([6]; HuCTB006 1.8 mg/kg i.v.): 0.23 ± 0.12 g
- TGI (Calculated using tumor weight) [6, 9]: 81.78%*
- TGI (Calculated using tumor volume) ([6]; HuCTB006 5.4 mg/kg i.v.): 85.24%
- Tumor Volume (cm^3) Mean ± SEM ([6]; HuCTB006 5.4 mg/kg i.v.): 0.28 ± 0.10 cm^3
- TGI (Calculated using tumor volume) [6, 10]: 85.24%*
- Time of tumor volume changed significantly ([6]; HuCTB006 5.4 mg/kg i.v.): 7~10^2 days
- TGI (Calculated using tumor weight) ([6]; HuCTB006 5.4 mg/kg i.v.): 88.15%
- Tumor weight (g) Mean ± SEM ([6]; HuCTB006 5.4 mg/kg i.v.): 0.15 ± 0.07 g
- TGI (Calculated using tumor weight) [6, 10]: 88.15%*
- Tumor Volume (cm^3) Mean ± SEM ([7]; HuCTB006 0.07 mg/kg i.v.): 1.76 ± 0.18 cm^3
- TGI (Calculated using tumor volume) ([7]; HuCTB006 0.07 mg/kg i.v.): 6.61%^1
- Tumor weight (g) Mean ± SEM ([7]; HuCTB006 0.07 mg/kg i.v.): 1.29 ± 0.18 g
- Tumor Volume (cm^3) Mean ± SEM ([7]; HuCTB006 0.22 mg/kg i.v.): 1.54 ± 0.18 cm^3
- TGI (Calculated using tumor volume) ([7]; HuCTB006 0.22 mg/kg i.v.): 18.71%^ac
- Tumor weight (g) Mean ± SEM ([7]; HuCTB006 0.22 mg/kg i.v.): 1.16 ± 0.13 g
- Tumor Volume (cm^3) Mean ± SEM ([7]; HuCTB006 0.67 mg/kg i.v.): 0.96 ± 0.10 cm^3
- Tumor weight (g) Mean ± SEM ([7]; HuCTB006 0.67 mg/kg i.v.): 0.68 ± 0.08 g
- Tumor Volume (cm^3) Mean ± SEM ([7]; HuCTB006 2 mg/kg i.v.): 0.80 ± 0.11 cm^3
- Tumor weight (g) Mean ± SEM ([7]; HuCTB006 2 mg/kg i.v.): 0.53 ± 0.08 g
